“Also recorded” adds a separate entry of the source.
Columns and labels:
mice = assay: Survival of mice during treatment (Example 3); format: in vivo; conditions: EPI 15 mg/kg bw; NPs-EPI 3.75 and […] bw, i.v. every second day
internal organs [1] = assay: Macroscopic and histopathological examination of internal organs at necropsy (Example 3); format: in vivo, mice
A2780 = assay: MTT cytotoxicity test, A2780; format: cell-based; conditions: 24 h
From the text: (§1) In this test, […] present in the cells converts the soluble tetrazolium salt (3-4,5-dimethylthiazol-2-yl)-2,5-diphenyltetrazolium bromide) into a reduced form. The reaction yields water-insoluble purple crystalline formazan. The number of crystals formed depends on the enzyme activity so that it is directly proportional to the number of viable cells in the sample. Spectrophotometric measurement requires the use of an organic solvent to dissolve the crystals obtained (isopropanol). The change in colour intensity is measured by spectrophotometry at 570 nm wavelength. The test was performed for a number of dilutions (9) of nanoparticle solutions containing the tested anthracycline. The baseline concentration of nanoparticles for MTT tests was 2.5 mg of nanoparticles/ml. […] The study was also performed for drug-free nanoparticles (the carrier itself was obtained similarly to the nanoparticles with the drug). Cells not exposed to toxic substances were used as a control for toxicity studies.
(§2) After reaching 85-90% confluence, the cells were trypsinised using a 0.25% trypsin solution. The cells were then centrifuged (1200 rpm, 5 min.) and suspended in a culture medium suitable for a particular cell line. […] The cells were plated at a concentration of 1000 cells/100 μl of medium per culture well (96-well plates). The prepared plates were incubated (37° C./5% CO2/22 h to 26 h). Subsequently, the culture medium was replaced with a fresh one (100 μl) containing the appropriate concentration of the tested nanoparticles and set aside for 24 h (37° C./5% CO2). After the lapse of the test time, the medium was removed and replaced with 50 μl of an MTT reagent solution at a concentration of 1 mg/ml. The plate was incubated for 2 hours (37° C./5% CO2). Subsequently, the MTT solution was removed, and 100 μl of isopropanol was added. […] The mean value of absorbance read OD570 of the cells not exposed to a toxic agent (control) should be above 0.7 [see literature item 206].
(§3) A decrease in the number of viable cells causes a decrease in metabolic activity in the sample. This reduction directly correlates with the amount of blue and purple formazan formed, monitored basing on the optical density at 570 nm. The following equation (C.1) is used to calculate viability reduction compared to control:
(§4) where: • OD570e is the mean value of the measured absorbance of the test samples; • OD570b is the mean value of the measured absorbance of the control.
(§5) The results obtained were statistically analysed using the Dixon Q test.

internal organs [2] = conditions: microscopic images, dose of 10 mg/kg bw
From the text: (§6) Following Example 3, mice were obtained constituting an ovarian tumour test model, which were divided into 3 groups.

[3] = 10 mg/kg bw every 3 days, following 3 administrations
From the text: as §6

MCF-7 = assay: MTT cytotoxicity test, MCF-7; format: cell-based; conditions: 24 h
From the text: as §1, §2, §3, §4, §5

OVCAR-3 = assay: MTT cytotoxicity test, OVCAR-3; format: cell-based; conditions: 24 h
From the text: as §1, §2, §3, §4, §5

OVCAR3 line cells = assay: Anti-tumour efficacy, tumour volume, OVCAR3 xenograft, 10 mg/kg bw every 3 days (Example 4); format: in vivo, mice
From the text: as §6

[4] = to limit side effects; cited from earlier work
[5] = A2780, 1.25E+04 ng/ml NPs (pure drug equimolar)
[6] = A2780, 1.25E+05 ng/ml NPs (pure drug equimolar)
[7] = A2780, 1.25E+06 ng/ml NPs (pure drug equimolar)
[8] = A2780, 2.50E+04 ng/ml NPs (pure drug equimolar)
[9] = A2780, 2.50E+05 ng/ml NPs (pure drug equimolar)
[10] = A2780, 2.50E+06 ng/ml NPs (pure drug equimolar)
[11] = A2780, 5.00E+03 ng/ml NPs (pure drug equimolar)
[12] = A2780, 5.00E+04 ng/ml NPs (pure drug equimolar)
[13] = A2780, 5.00E+05 ng/ml NPs (pure drug equimolar)
[14] = MCF-7, 1.25E+04 ng/ml NPs (pure drug equimolar)
[15] = MCF-7, 1.25E+05 ng/ml NPs (pure drug equimolar)
[16] = MCF-7, 1.25E+06 ng/ml NPs (pure drug equimolar)
[17] = MCF-7, 2.50E+04 ng/ml NPs (pure drug equimolar)
[18] = MCF-7, 2.50E+05 ng/ml NPs (pure drug equimolar)
[19] = MCF-7, 2.50E+06 ng/ml NPs (pure drug equimolar)
[20] = MCF-7, 5.00E+03 ng/ml NPs (pure drug equimolar)
[21] = MCF-7, 5.00E+04 ng/ml NPs (pure drug equimolar)
[22] = MCF-7, 5.00E+05 ng/ml NPs (pure drug equimolar)
[23] = OVCAR3, 1.25E+05 ng/ml NPs (pure drug equimolar)
[24] = OVCAR3, 1.25E+06 ng/ml NPs (pure drug equimolar)
[25] = OVCAR3, 2.50E+04 ng/ml NPs (pure drug equimolar)
[26] = OVCAR3, 2.50E+05 ng/ml NPs (pure drug equimolar)
[27] = OVCAR3, 2.50E+06 ng/ml NPs (pure drug equimolar)
[28] = OVCAR3, 5.00E+04 ng/ml NPs (pure drug equimolar)
[29] = OVCAR3, 5.00E+05 ng/ml NPs (pure drug equimolar)
[30] = 10 mg/kg bw every 3 days, group average

Q: With `COc1cccc2c1C(=O)c1c(O)c3c(c(O)c1C2=O)C[C@@](O)(C(=O)CO)C[C@@H]3O[C@H]1C[C@H](N)[C@@H](O)[C@H](C)O1` [Epi, epirubicin] as the molecule, how does the “death or survival of the mice during treatment” value (mice) read?
A: resulted in the death of the mice

Q: What about the “inflammation and changes of liver and spleen compared to the control group” value (internal organs [1]; OVCAR3 mice) of the same molecule?
A: severe inflammation and changes in the structure of the liver

Q: What about the “Macroscopic evaluation of internal organs: Adrenal glands” value (internal organs [1]; mouse #5, 15 mg/kg bw) of the same molecule?
A: No visible changes

Q: What about the “Macroscopic evaluation of internal organs: Bladder” value (internal organs [1]; mouse #5, 15 mg/kg bw) of the same molecule?
A: No visible changes

Q: And the “Macroscopic evaluation of internal organs: Brain” value (internal organs [1]; mouse #5, 15 mg/kg bw)?
A: No visible changes

Q: What about the “Macroscopic evaluation of internal organs: Heart” value (internal organs [1]; mouse #5, 15 mg/kg bw) of the same molecule?
A: No visible changes

Q: And the “Macroscopic evaluation of internal organs: Left kidney” value (internal organs [1]; mouse #5, 15 mg/kg bw)?
A: Consistency softer than normal

Q: And the “Macroscopic evaluation of internal organs: Liver” value (internal organs [1]; mouse #5, 15 mg/kg bw)?
A: consistency softer than normal, blood vessels; also recorded: Liver surface colour dark cherry to brown,

Q: What about the “Macroscopic evaluation of internal organs: Lung” value (internal organs [1]; mouse #5, 15 mg/kg bw) of the same molecule?
A: No visible changes

Q: And the “Macroscopic evaluation of internal organs: Pancreas” value (internal organs [1]; mouse #5, 15 mg/kg bw)?
A: No visible changes

Q: And the “Macroscopic evaluation of internal organs: Reproductive organs” value (internal organs [1]; mouse #5, 15 mg/kg bw)?
A: No visible changes

Q: What about the “Macroscopic evaluation of internal organs: Right kidney” value (internal organs [1]; mouse #5, 15 mg/kg bw) of the same molecule?
A: Consistency softer than normal

Q: What about the “Macroscopic evaluation of internal organs: Spleen” value (internal organs [1]; mouse #5, 15 mg/kg bw) of the same molecule?
A: 1.6 cm × 0.4 cm × 0.1 cm in size, and slightly smaller, dark brown in colour

Q: What about the “Macroscopic evaluation of internal organs: Stomach” value (internal organs [1]; mouse #5, 15 mg/kg bw) of the same molecule?
A: No visible changes

Q: What about the “Macroscopic evaluation of internal organs: Thymus” value (internal organs [1]; mouse #5, 15 mg/kg bw) of the same molecule?
A: No visible changes

Q: What about the “External appearance of the mouse: skin thick” value (internal organs [1]; mouse #5, EPI/OVCAR3 group, 15 mg/kg bw) of the same molecule?
A: 0.21 mm

Q: And the “External appearance of the mouse” value (internal organs [1]; mouse #5, EPI/OVCAR3 group, 15 mg/kg bw, 15 mg/kg)?
A: Anal area dirty with faeces, mouse; also recorded: cachectic

Q: What about the Average viability (A2780; [5]) of the same molecule?
A: 90.784%

Q: What about the Average viability (A2780; [6]) of the same molecule?
A: 69.996%

Q: What about the Average viability (A2780; [7]) of the same molecule?
A: 14.869%

Q: And the Average viability (A2780; [8])?
A: 89.24%

Q: What about the Average viability (A2780; [9]) of the same molecule?
A: 58.252%

Q: What about the Average viability (A2780; [10]) of the same molecule?
A: 3.102%

Q: And the Average viability (A2780; [11])?
A: 95.203%

Q: And the Average viability (A2780; [12])?
A: 83.629%

Q: And the Average viability (A2780; [13])?
A: 41.752%

Q: And the “Appearance of the organ: Tumour” value (internal organs [2])?
A: anaplastic lesions, moderate tumour necrosis

Q: What about the “Appearance of the organ: Liver” value (internal organs [2]; 10 mg/kg) of the same molecule?
A: Hyperaemia, features of hepatocyte; also recorded: feathery degeneration, focal necrosis

Q: And the “Appearance of the organ: Reproductive organs” value (internal organs [2]; 10 mg/kg)?
A: Severe lesions, endometrial hypertrophy,; also recorded: cystic lesions, the growth of Leydig cells

Q: And the “average decrease of body weight” value [3]?
A: 22.55%

Q: And the Average viability (MCF-7; [14])?
A: 88.51%

Q: And the Average viability (MCF-7; [15])?
A: 46.97%

Q: What about the Average viability (MCF-7; [16]) of the same molecule?
A: 5.9%

Q: What about the Average viability (MCF-7; [17]) of the same molecule?
A: 64.7%

Q: What about the Average viability (MCF-7; [18]) of the same molecule?
A: 41.35%

Q: What about the Average viability (MCF-7; [19]) of the same molecule?
A: 1.68%

Q: And the Average viability (MCF-7; [20])?
A: 97.78%

Q: What about the Average viability (MCF-7; [21]) of the same molecule?
A: 56.01%

Q: And the Average viability (MCF-7; [22])?
A: 31.11%

Q: What about the Average viability (OVCAR-3; [23]) of the same molecule?
A: 91.668%

Q: What about the Average viability (OVCAR-3; [24]) of the same molecule?
A: 58.803%

Q: What about the Average viability (OVCAR-3; [25]) of the same molecule?
A: 99.208%

Q: What about the Average viability (OVCAR-3; [26]) of the same molecule?
A: 88.222%

Q: And the Average viability (OVCAR-3; [27])?
A: 33.266%

Q: And the Average viability (OVCAR-3; [28])?
A: 92.151%

Q: And the Average viability (OVCAR-3; [29])?
A: 75.986%

Q: What about the “Average tumour volume (mm^3) Before necropsy” value (OVCAR3 line cells; 10 mg/kg bw every 3 days (group K), after 3 administrations) of the same molecule?
A: 124.45 ± 57.05 mm^3

Q: What about the “Average tumour volume (mm^3) Before 1st administration” value (OVCAR3 line cells; [30]) of the same molecule?
A: 143.56 ± 9.22 mm^3

Q: And the “Average tumour volume (mm^3) Before 2nd administration” value (OVCAR3 line cells; [30])?
A: 148.77 ± 41.82 mm^3

Q: What about the “Average tumour volume (mm^3) Before 3rd administration” value (OVCAR3 line cells; [30]) of the same molecule?
A: 131.00 ± 42.96 mm^3

Q: What about the “average increase of tumour volume” value (OVCAR3 line cells; 10 mg/kg bw, after the first dose) of the same molecule?
A: 3.63%

Q: What does the source list for `COc1cccc2c1C(=O)c1c(O)c3c(c(O)c1C2=O)C[C@@](O)(C(C)=O)C[C@@H]3O[C@H]1C[C@H](N)[C@H](O)[C@H](C)O1` [Dau, daunorubicin]?
A: Average viability (A2780; [5]): 0.540%; Average viability (A2780; [6]): 18.312%; Average viability (A2780; [7]): 60.422%; Average viability (A2780; [8]): 3.689%; Average viability (A2780; [9]): 35.542%; Average viability (A2780; [10]): 54.259%; Average viability (A2780; [11]): 0.295%; Average viability (A2780; [12]): 11.600%; Average viability (A2780; [13]): 60.621%; Average viability (MCF-7; [14]): 1.153%; Average viability (MCF-7; [15]): 17.162%; Average viability (MCF-7; [16]): 40.867%; Average viability (MCF-7; [17]): 1.072%; Average viability (MCF-7; [18]): 23.086%; Average viability (MCF-7; [19]): 69.450%; Average viability (MCF-7; [20]): 1.311%; Average viability (MCF-7; [21]): 4.421%; Average viability (MCF-7; [22]): 25.325%; maximum recommended cumulative dose [4]: 500 mg/m^2; Average viability (OVCAR-3; OVCAR3, 1.25E+04 ng/ml NPs (pure drug equimolar)): 3.616%; Average viability (OVCAR-3; [23]): 59.635%; Average viability (OVCAR-3; [24]): 94.253%; Average viability (OVCAR-3; [25]): 43.386%; Average viability (OVCAR-3; [26]): 71.147%; Average viability (OVCAR-3; [27]): 99.822%; Average viability (OVCAR-3; OVCAR3, 5.00E+03 ng/ml NPs (pure drug equimolar)): 1.330%; Average viability (OVCAR-3; [28]): 52.550%; Average viability (OVCAR-3; [29]): 120.518%

From US20210052616A1, “ANTHRACYCLINE ENCAPSULATED WITH A POLYSACCHARIDE FOR USE IN THE TREATMENT OF TUMOURS” (NANOVELOS S.A, priority 2018, published 2021)
